According to patent publication US20220168391A1, “USE OF EPIDERMAL GROWTH FACTOR IN DIABETIC FOOT ULCER TREATMENT” (Centro de Ingeniería Genética y Biotecnología, priority 2019, published 2022):

What was measured:
[1] = tested on: DFU patients with no amputation criteria of the limb; test: Example 4: healing of DFU after intralesional rhEGF once a week plus conventional therapy; assay type: in vivo, human
Description: The intralesional treatment with this growth factor was performed once a week, for 8 weeks, or for less time, if the lesion closed up to a dimension equal to or less than 1 cm^2. Another group of patients received conventional therapy only, with the difference that the procedure was performed three times a week, until the complete closure of the lesion was achieved.
The patients in these series had no amputation criteria of the limb affected by the DFU at the time of the initial evaluation. […] As mentioned before, conventional therapy in all patients was performed according to the standards of treatment for DFU established by the National Angiology Group of Cuba.

[2] = tested on: patients of DFU with amputation criteria of the affected limb; test: Example 3: healing of DFU after intralesional rhEGF at different doses, three times a week then once a week, versus three times a week control; assay type: in vivo, human; details: for Closure of the lesion (%) / Closure of the lesion, number of patients: three times a week then once a week, during follow-up; for Complete granulation response (%) / Complete granulation response, number of patients: at 8 weeks
Description: The route of administration was always the intralesional one. […] The doses administered per group were 2.5 μg, 25 μg, 50 μg and 75 μg. Seven patients were incorporated into the group that received 2.5 μg, 10 patients to the group that received the 25 μg dose; 13 patients to the group that received 50 μg and 18 patients in the group of 75 μg.
On the other hand, there was a group of 93 patients who were treated, during the whole period, with the dose of 75 μg three times a week. The period of treatment was 8 weeks.
Patients in all groups continued receiving the conventional therapy, which was performed according to the DFU standard treatment established by the National Angiology Group of Cuba, as summarized in Example 1.

DFU = details: approved lyophilized medicament, intralesional; highest reduction in less complicated ulcers; cited from earlier work
patients with DFU [3] = test: Example 1: intralesional rhEGF in three treatment regimes, granulation, lesion closure and amputations in DFU patients; assay type: in vivo, human
Description: To do so, the reconstitution and dilution of the vial containing the drug was performed with 5 mL of water for injection. The administrations were made until 100% granulation of lesion, the closure of the lesion by grafting, or when a maximum of 8 weeks of treatment was attained.
Patients belonging to group 3 received the drug (75 μg/dose) three times a week, during the first week, by intralesional route. From the second week onward, the treatment continued with a dose of 225 μg, once a week. The treatment period was 8 weeks, although it was shorter if the complete closure of the lesion occurred earlier or if the ulcer reached a size smaller than 1 cm^2.
The formulated product was lyophilized in vials containing 25 μg or 75 μg of the active pharmaceutical ingredient. The composition also contained pharmaceutically acceptable excipients, such as stabilizers and pH regulators.
Patients in all three groups continued receiving conventional therapy, which was performed according to the DFU treatment standards established by the National Angiology Group of Cuba. This consists of: offloading of the lesion, metabolic control of the underlying disease with insulin (which replaces oral hypoglycemic agents), washing of the lesion with saline solution and mild soap substances, debridement, application of sterile dressings with gauze bandage, and antimicrobials, depending on the type of infectious germ present in the lesion.
The area of the DFU and the percentage of granulation were measured by a commercial system created for these purposes (Visitrak™, Smith & Nephew), which consists of grid transparent films and a device to measure the lesion by planimetry. This system has been previously validated (Sugama J, et al. J Clin Nurs 2007; 16 (7): 1265-1269). Using a permanent marker, the tracing of the contours of the lesion and the granulated regions, on the grid transparent film, was conducted.

[4] = Example 2: pharmacokinetic study, rhEGF levels in plasma of DFU patients after intralesional administration (ELISA); assay type: in vivo, human; details: for Amount of rhEGF remaining in the area of the ulcer: bioavailability analysis; for AUC / t½: intralesional, plasma, immediately after the first administration
Description: A pharmacokinetic study was carried out, starting from blood samples taken from 31 patients. […] The most important parameters evaluated were the ‘Area under the Curve’ (AUC) and the half-life time (t½) among others. […] The treatment was performed for 8 weeks, or less time if the ulcer area reached a measure equal or less than 1 cm^2.
For the quantitation of this growth factor, the instructions of the kit manufacturer were followed.

patients with DFU [5] = test: Example 5: case reports, injectable rhEGF once a week in DFU patients with no criteria for amputation; assay type: in vivo, human; details: 75 μg once a week for two weeks
Source text: The size of the lesion, after debridement, was 10 cm^2.
The ulcer base was covered with more than 75% of useful granulation tissue. The ulcer size was 7 cm^2.

[6] = 2.5 μg once a week plus conventional therapy, n = 10, between 8 and 12 weeks
[7] = 25 μg once a week plus conventional therapy, n = 15, between 8 and 12 weeks
[8] = 50 μg once a week plus conventional therapy, n = 15, between 8 and 12 weeks
[9] = 75 μg once a week plus conventional therapy, n = 20, between 8 and 12 weeks
[10] = 25 μg three times a week then once a week, n = 10
[11] = 50 μg three times a week then once a week, n = 13, at 3 weeks
[12] = 75 μg three times a week then once a week, n = 18
[13] = Control Group: 75 μg three times a week for 8 weeks, n = 93, at 3 weeks
[14] = Control Group: 75 μg three times a week for 8 weeks, n = 93
[15] = Group 1: 75 μg/dose three times a week, n = 45
[16] = Group 2: 25 μg/dose three times a week intralesional, n = 45, at 3 weeks
[17] = Group 2: 25 μg/dose three times a week, n = 45
[18] = Group 2: 25 μg/dose three times a week, n = 45, end of treatment
[19] = Group 3: 75 μg three times a week first week, then 225 μg once a week, n = 25
[20] = Group 3: 75 μg three times a week first week, then 225 μg once a week, n = 25, end of treatment
[21] = Group 3: 75 μg three times a week in first week, then 225 μg once a week, n = 25, at 3 weeks

recombinant human Epidermal Growth Factor [rhEGF]
Closure of the Lesion No (%) [1, 6]: (40%)
Closure of the Lesion No, number of patients [1, 6]: 4
Closure of the Lesion Yes, number of patients ([1]; 2.5 μg once a week plus conventional therapy, n = 10, between 8 and 12 weeks after commencement): 6
Closure of the Lesion No (%) [1, 7]: (33%)
Closure of the Lesion Yes (%) [1, 7]: (67%)
Closure of the Lesion No (%) [1, 8]: (40%)
Closure of the Lesion No, number of patients [1, 8]: 6
Closure of the Lesion Yes, number of patients [1, 8]: 9
Closure of the Lesion No, number of patients [1, 9]: 4
Closure of the Lesion Yes (%) [1, 9]: (80%)
Closure of the Lesion Yes, number of patients [1, 9]: 16
Closure of the lesion (%) ([2]; 2.5 μg group): 57%
Closure of the lesion, number of patients ([2]; 2.5 μg group): 4
Objective granulation response (%) ([2]; 2.5 μg three times a week then once a week, n = 7, at 3 weeks): (57%)
Complete granulation response (%) ([2]; 2.5 μg three times a week then once a week, n = 7): (71%)
Objective granulation response, number of patients ([2]; 2.5 μg three times a week until no amputation criterion, then once a week, n = 7, ≥75% of lesion area granulated at 3 weeks): 4
Objective granulation response, number of patients ([2]; 25 μg three times a week then once a week, n = 10, at 3 weeks): 6
Complete granulation response (%) [2, 10]: (70%)
Complete granulation response, number of patients [2, 10]: 7
Closure of the lesion (%) ([2]; 50 μg group): 69%
Closure of the lesion, number of patients ([2]; 50 μg group): 9
Objective granulation response (%) [2, 11]: (61%)
Objective granulation response, number of patients [2, 11]: 8
Complete granulation response (%) ([2]; 50 μg three times a week then once a week, n = 13): (77%)
Closure of the lesion (%) ([2]; 75 μg group): 72%
Objective granulation response (%) ([2]; 75 μg three times a week then once a week, n = 18, at 3 weeks): (72%)
Complete granulation response (%) [2, 12]: (83%)
Complete granulation response, number of patients [2, 12]: 15
Objective granulation response (%) [2, 13]: (77%)
Objective granulation response, number of patients [2, 13]: 72
Complete granulation response (%) [2, 14]: (85%)
Complete granulation response, number of patients [2, 14]: 79
Closure of the lesion (% of the patients) ([2]; control group, 75 μg three administrations per week): 81%
Reduction in the risk of amputation ([2]; new treatment schedule (three times a week then once a week) along with conventional therapy): more than 80%
Amputations ([2]; the four groups that differed in the rhEGF dose and the control group): below 12%
Reduction of amputation rates (DFU): ≥ 70%
Granulation Objective Response CR*+PR* (%) (patients with DFU [3]; Group 1: 75 μg/dose three times a week intralesional, n = 45, at 3 weeks): 75%
Granulation Objective Response CR*+PR*, number of patients (patients with DFU [3]; Group 1: 75 μg/dose three times a week intralesional, n = 45, at 3 weeks (>50% of lesion area covered by granulation tissue)): 34
Amputations, number of patients (patients with DFU [3]; [15]): 6
Lesion Closure, number of patients (patients with DFU [3]; [15]): 34
Granulation Complete Response CR (%) (patients with DFU [3]; Group 1: 75 μg/dose three times a week, n = 45, end of treatment): 80%
Granulation Complete Response CR, number of patients (patients with DFU [3]; Group 1: 75 μg/dose three times a week, n = 45, end of treatment (100% of lesion area granulated)): 36
Granulation Objective Response CR*+PR* (%) (patients with DFU [3]; [16]): 64%
Granulation Objective Response CR*+PR*, number of patients (patients with DFU [3]; [16]): 29
Amputations (%) (patients with DFU [3]; [17]): 22%
Lesion Closure, number of patients (patients with DFU [3]; [17]): 27
Granulation Complete Response CR (%) (patients with DFU [3]; [18]): 69%
Granulation Complete Response CR, number of patients (patients with DFU [3]; [18]): 31
Amputations, number of patients (patients with DFU [3]; [19]): 3
Lesion Closure, number of patients (patients with DFU [3]; [19]): 18
Granulation Complete Response CR (%) (patients with DFU [3]; [20]): 76%
Granulation Complete Response CR, number of patients (patients with DFU [3]; [20]): 19
Granulation Objective Response CR*+PR* (%) (patients with DFU [3]; [21]): 68%
Granulation Objective Response CR*+PR*, number of patients (patients with DFU [3]; [21]): 17
Amount of rhEGF remaining in the area of the ulcer ([4]; 25 μg dose): about 19 μg
AUC ([4]; 25 μg dose): 0.0851 ± 0.0502 ng·h/mL
t½ ([4]; 25 μg dose): 51 ± 46.8 min
Amount of rhEGF remaining in the area of the ulcer ([4]; 75 μg dose): ~58 µg
AUC ([4]; 75 μg dose): 0.1978 ± 0.0739 ng·h/mL
t½ ([4]; 75 μg dose): 39.6 ± 10.8 min
Amount of rhEGF remaining in the area of the ulcer ([4]; 225 μg dose): around 63 μg
AUC ([4]; 225 μg dose): 0.2886 ± 0.0894 ng·h/mL
t½ ([4]; 225 μg dose): 45 ± 12.6 min
Plasma rhEGF value after two hours of sample collection ([4]; independently of the dose received (25, 75, 225 μg)): returned to baseline levels
Lesion closure, Patient A (patients with DFU [5]; Patient A, 10 cm^2 superficial lesion, after said time): complete closure of the lesion was attained
Time to closure of the lesion after the first application, Patient B (patients with DFU [5]; Patient B, 7 cm^2 deep lesion): 9 weeks
Granulation response, Patient B (patients with DFU [5]; Patient B, 7 cm^2 deep lesion, after said time): complete granulation response was obtained
